# Test results as given in patent US6472348B1, “Pyridone derivatives and herbicides” (Kumiai Chemical Industry Co., Ltd., priority 1996, dated 2002).
# Experiments:
# [1] = test system: barnyardgrass (Ec); test: Test Example 1: herbicidal effects by paddy field soil treatment; type: in vivo; conditions: 100 g of the active ingredient per 10 ares, 21st day after the application, index 0-5 of Table 47;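 further: grade of growth control; 5 = at least 90%; 4 = 70 to 90%; 3 = 50 to 70%; 2 = 30 to 50%; 1 = 10 to 30%; 0 = under 10%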
# How it was run: (§1)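 Greenhouse pot test in flooded paddy soil, dosed at 100 g a.i. per 10 ares; effect scored on day 21.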
# [2] = test system: bulrush (Sc); test: as above; type: in vivo; conditions: 100 g of the active ingredient per 10 ares, 21st day after the application, index 0-5 of Table 47;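 further: grade of growth control; 5 = at least 90%; 4 = 70 to 90%; 3 = 50 to 70%; 2 = 30 to 50%; 1 = 10 to 30%; 0 = under 10%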
# How it was run: as §1
# [3] = test system: monochoria (Mo); test: as above; type: in vivo; conditions: 100 g of the active ingredient per 10 ares, 21st day after the application, index 0-5 of Table 47;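 further: grade of growth control; 5 = at least 90%; 4 = 70 to 90%; 3 = 50 to 70%; 2 = 30 to 50%; 1 = 10 to 30%; 0 = under 10%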
# How it was run: as §1
# [4] = test system: Digitaria ciliaris (Di); test: Test Example 2: herbicidal effects by upland field soil treatment; type: in vivo; conditions: 100 g of the active ingredient per 10 ares;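 further: grade of growth control; 5 = at least 90%; 4 = 70 to 90%; 3 = 50 to 70%; 2 = 30 to 50%; 1 = 10 to 30%; 0 = under 10%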
# Text: (§2) (Test on Herbicidal Effects by Upland Field Soil Treatment)
# [5] = test system: barnyardgrass (Ec); test: as above; type: in vivo; conditions: 100 g of the active ingredient per 10 ares
# Text: as §2
# [6] = test system: common lambsquarters (Ch); test: as above; type: in vivo; conditions: 100 g of the active ingredient per 10 ares
# Text: as §2
# [7] = test system: pale smartweed (Po); test: as above; type: in vivo; conditions: 100 g of the active ingredient per 10 ares
# Text: as §2
# [8] = test system: rice flatsedge (Ci); test: as above; type: in vivo; conditions: 100 g of the active ingredient per 10 ares
# Text: as §2
# [9] = test system: slender amaranth (Am); test: as above; type: in vivo; conditions: 100 g of the active ingredient per 10 ares
# Text: as §2
# [10] = test system: Diaitaria ciliaris (Di); test: Test Example 3: herbicidal effects by upland field foliage treatment; type: in vivo; set-up: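 grade of growth control; 5 = at least 90%; 4 = 70 to 90%; 3 = 50 to 70%; 2 = 30 to 50%; 1 = 10 to 30%; 0 = under 10%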
# How it was run: (§3)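 Post-emergence upland foliage test. Seedlings grown 2 weeks under glass in pots (120 cm^2) of sand, seed topped with soil; treated on the foliage, kept in greenhouse, then assessed at day 14 using rating standards.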
# [11] = test system: barnyardgrass (Ec); test: as above; type: in vivo; set-up: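 grade of growth control; 5 = at least 90%; 4 = 70 to 90%; 3 = 50 to 70%; 2 = 30 to 50%; 1 = 10 to 30%; 0 = under 10%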
# How it was run: as §3
# [12] = test system: common lambsquarters (Ch); test: as above; type: in vivo; set-up: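 grade of growth control; 5 = at least 90%; 4 = 70 to 90%; 3 = 50 to 70%; 2 = 30 to 50%; 1 = 10 to 30%; 0 = under 10%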
# How it was run: as §3
# [13] = test system: pale smartweed (Po); test: as above; type: in vivo; set-up: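 grade of growth control; 5 = at least 90%; 4 = 70 to 90%; 3 = 50 to 70%; 2 = 30 to 50%; 1 = 10 to 30%; 0 = under 10%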
# How it was run: as §3
# [14] = test system: rice flatsedge (Ci); test: as above; type: in vivo; set-up: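 grade of growth control; 5 = at least 90%; 4 = 70 to 90%; 3 = 50 to 70%; 2 = 30 to 50%; 1 = 10 to 30%; 0 = under 10%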
# How it was run: as §3
# [15] = test system: slender amaranth (Am); test: as above; type: in vivo; set-up: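 grade of growth control; 5 = at least 90%; 4 = 70 to 90%; 3 = 50 to 70%; 2 = 30 to 50%; 1 = 10 to 30%; 0 = under 10%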
# How it was run: as §3
# [16] = 21st day after the application, index 0-5 of Table 47
# [17] = 100 g of the active ingredient per 10 ares, evaluated on the 14th day after treatment
# [18] = evaluated on the 21st day after application
# [19] = 100 g active ingredient per 10 ares, evaluated 14th day after treatment
Structure (SMILES),melting point [°C],Herbicidal effects Ec [1],Herbicidal effects Sc [2],Herbicidal effects Mo [3],"Herbicidal effects Di [4, 16]","Herbicidal effects Ec [5, 16]","Herbicidal effects Ch [6, 16]","Herbicidal effects Po [7, 16]","Herbicidal effects Di [4, 18]","Herbicidal effects Ec [5, 18]","Herbicidal effects Ch [6, 18]","Herbicidal effects Po [7, 18]","Herbicidal effects Ci [8, 18]","Herbicidal effects Am [9, 18]","Herbicidal effects Di [10, 19]","Herbicidal effects Ec [11, 19]","Herbicidal effects Ch [12, 19]","Herbicidal effects Po [13, 19]","Herbicidal effects Ci [14, 19]","Herbicidal effects Am [15, 19]",also measured
"Cn1c(C(F)(F)F)ccc(-c2cc(CBr)c(Cl)cc2F)c1=O [Compound No. 1-82, 3-(4-chloro-2-fluoro-5-bromomethylphenyl)-1-methyl-6-trifluoromethyl-2(1H)-pyridone]",117 to 118,5,5,5,5,4,5,5,,,,,,,,,,,,,"Herbicidal effects Ci [8, 16]: 5; Herbicidal effects Am [9, 16]: 5; Herbicidal effects Di [10, 17]: 5; Herbicidal effects Ec [11, 17]: 4; Herbicidal effects Ch [12, 17]: 5; Herbicidal effects Po [13, 17]: 5; Herbicidal effects Ci [14, 17]: 5; Herbicidal effects Am [15, 17]: 5"
"CCCC(O)c1cc(-c2ccc(C(F)(F)F)n(C)c2=O)c(F)cc1Cl (stereo not shown) [Compound No. 1-193, 3-[4-chloro-2-fluoro-5-(1-hydroxybutyl)phenyl]-1-methyl-6-trifluoromethyl-2(1H)-pyridone]",120 to 122,5,5,5,,,,,5,5,5,5,5,5,5,5,5,5,5,5,
"Cc1cc2c(Cl)cc(F)c(-c3ccc(C(F)(F)F)n(C)c3=O)c2o1 [Compound No. 5-1, 3-(4-chloro-6-fluoro-2-methylbenzofuran-7-yl)-1-methyl-6-trifluoromethyl-2 (1H)-pyridone]",138 to 140,5,5,5,,,,,5,5,5,5,5,5,5,5,5,5,5,5,

# Now from value to molecule, other results behind:
melting point [°C],Structure (SMILES),Herbicidal effects Ec [1],Herbicidal effects Sc [2],Herbicidal effects Mo [3],"Herbicidal effects Di [4, 16]","Herbicidal effects Ec [5, 16]","Herbicidal effects Ch [6, 16]","Herbicidal effects Po [7, 16]","Herbicidal effects Di [4, 18]","Herbicidal effects Ec [5, 18]","Herbicidal effects Ch [6, 18]","Herbicidal effects Po [7, 18]","Herbicidal effects Ci [8, 18]","Herbicidal effects Am [9, 18]","Herbicidal effects Di [10, 19]","Herbicidal effects Ec [11, 19]","Herbicidal effects Ch [12, 19]","Herbicidal effects Po [13, 19]","Herbicidal effects Ci [14, 19]","Herbicidal effects Am [15, 19]",also measured
113 to 114,"Cn1c(C(F)(F)F)ccc(-c2cc(NS(C)(=O)=O)c(Cl)cc2F)c1=O [Compound No. 1-60, 3-(4-chloro-2-fluoro-5-methylsulfonylaminophenyl)-1-methyl-6-trifluoromethyl-2(1H)-pyridone]",5,5,5,5,5,5,5,,,,,,,,,,,,,"Herbicidal effects Ci [8, 16]: 5; Herbicidal effects Am [9, 16]: 5; Herbicidal effects Di [10, 17]: 5; Herbicidal effects Ec [11, 17]: 5; Herbicidal effects Ch [12, 17]: 5; Herbicidal effects Po [13, 17]: 5; Herbicidal effects Ci [14, 17]: 5; Herbicidal effects Am [15, 17]: 5"
107 to 108,"C#CCOc1cc(-c2cc(C)c(C(F)(F)F)n(C)c2=O)c(F)cc1Cl [Compound No. 1-76, 3-(4-chloro-2-fluoro-5-propargyloxyphenyl)-1,5-dimethyl-6-trifluoromethyl-2(1H)-pyridone]",5,5,5,5,5,5,5,,,,,,,,,,,,,"Herbicidal effects Ci [8, 16]: 5; Herbicidal effects Am [9, 16]: 5; Herbicidal effects Di [10, 17]: 5; Herbicidal effects Ec [11, 17]: 5; Herbicidal effects Ch [12, 17]: 5; Herbicidal effects Po [13, 17]: 5; Herbicidal effects Ci [14, 17]: 5; Herbicidal effects Am [15, 17]: 5"
150 to 151,"CC(C)Oc1cc(-c2cn(C)c(C(F)(F)F)cc2=O)c(F)cc1Cl [Compound No. 6-7, 5-(4-chloro-2-fluoro-5-isopropoxyphenyl)-1-methyl-2-trifluoromethyl-4(1H)-pyridone]",5,5,5,,,,,5,5,5,5,5,5,5,5,5,5,5,5,
152 to 154,"Cn1cc(-c2cc(OC3CCCC3)c(Cl)cc2F)c(=O)cc1C(F)(F)F [Compound No. 6-14, 5-(4-chloro-2-fluoro-5-cyclopentyloxyphenyl)-1-methyl-2-trifluoromethyl-4(1H)-pyridone]",5,5,5,,,,,5,5,5,5,5,5,5,5,5,5,5,5,
